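Step 1: Grow cells in 96-well plates. Step 2: Expose to compound for 48 hours at 5 concentrations. Step 3: Interpolate endpoints linearly; if unreached, use highest concentration. GI50 = concentration required for 50% inhibition of growth. TGI: concentration producing complete growth inhibition.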
What was measured:
Experiment in all cases: growth of human tumour cells (NCI), 48 h
[1] = tested on: UACC-257 melanoma
[2] = tested on: PC-3 prostate
[3] = tested on: HOP-92 NSCLC
[4] = tested on: NCI-H23 lung
[5] = tested on: 786-0 renal

| Structure (SMILES) | TGI [1] [µM] | TGI [2] [µM] | TGI [3] [µM] | TGI [4] [µM] | TGI [5] [µM] | GI50 [1] [µM] | GI50 [2] [µM] | GI50 [3] [µM] | GI50 [4] [µM] |
| --- | --- | --- | --- | --- | --- | --- | --- | --- | --- |
| O=C(O)CCC1(c2ccccc2)NC(=O)NC1=O (centres undefined) | > 100 | > 100 | > 100 | > 100 | > 100 | – | – | – | – |
| CN(/N=C\c1ccc2ccccc2c1)C1=NCCCCN1 | 33.7 | 36 | 7.4 | > 100 | 32.8 | – | – | – | – |
| CC(=O)OC[C@@]12C[C@H]3C(=O)C(C)(C)C[C@H]3[C@]1(C)[C@@H](OC(C)=O)[C@]1(O)[C@H]([C@@H](OC(=O)c3ccccc3)[C@@H](C)[C@H]1OC(C)=O)[C@H]2OC(C)=O | > 20 | > 20 | > 20 | > 20 | > 20 | – | – | – | – |
| CC(C)[Si]1(C(C)C)OCC2OC(n3ccc(=O)[nH]c3=O)C(O)(CO)C2O[Si](C(C)C)(C(C)C)O1 (centres undefined) | 28.7 | 25.9 | 22.6 | 12.5 | 29.3 | – | – | – | – |
| O=C1c2ccccc2C(=O)N1c1ccc(OCCN2CCCCC2)cc1 | > 100 | > 100 | > 100 | > 100 | > 100 | – | – | – | – |
| O=C(NCc1ccccc1)c1cnc(Cl)cn1 | > 100 | – | 55 | 87.4 | > 100 | – | – | – | – |
| C=C(Cl)C(Cl)(CBr)CCC(Cl)C(C)(C)Cl (centres undefined) | 3.79 | 3.36 | 2.52 | 34.3 | 1.32 | – | – | – | – |
| Clc1nc2c(-c3cccs3)ncnc2n1Cc1ccccc1 | 61.9 | > 76.4 | 62 | > 100 | 59.5 | – | – | – | – |
| O=C(NC(Nc1ccc(F)c(Cl)c1)(C(F)(F)F)C(F)(F)F)C(C(F)(F)F)C(F)(F)F | > 100 | > 100 | > 100 | 67.1 | > 100 | – | – | – | – |
| C[N+]1(C)CN(c2ccccc2)C2(CCN(CCCC(=O)c3cccs3)CC2)C1=O | > 100 | > 100 | > 100 | > 100 | > 100 | – | – | – | – |
| CC(C)(C)OC(=O)N1CCC23CCCC2C(=O)CC=C13 (centres undefined) | 71.9 | > 100 | > 100 | > 100 | > 100 | – | – | – | – |
| C[C@@H]1OC(=O)C[C@H]2CC(=O)N(CCc3cn(S(=O)(=O)C(F)(F)F)c4ccccc34)C[C@@H]21 | > 100 | > 100 | > 100 | > 100 | > 100 | – | – | – | – |
| O=C(CCN1CCCC1)Nc1ccc2c(NCCCc3ccccc3)c3ccccc3nc2c1 | 3.64 | 1.94 | 2.24 | 2.41 | – | 1.81 | 0.566 | 0.875 | 1.12 |
| COC(=O)CCCCC/C(=C\C(=O)C(Cl)(Cl)Cl)OC | 57.7 | 77.9 | 57.1 | > 100 | 68.5 | – | – | – | – |
| CC1(C)CCc2c(c(N=Nc3ccccc3)c3ccccc3c2O)O1 | 39.8 | 71.8 | 63.9 | > 100 | 30.8 | – | – | – | – |
| Nc1cccc(OCc2nc(N)nc(N)c2-c2ccc(Cl)cc2)c1 | > 100 | > 100 | > 100 | > 100 | > 100 | – | – | – | – |
| CCC(=O)NCCc1c[nH]c2ccc(OC)cc12 | > 100 | > 100 | > 100 | > 100 | > 100 | – | – | – | – |

| Structure (SMILES) | TGI [1] [µM] | TGI [2] [µM] | TGI [3] [µM] | TGI [4] [µM] | TGI [5] [µM] | GI50 [1] [µM] | GI50 [2] [µM] | GI50 [3] [µM] | GI50 [4] [µM] |
| --- | --- | --- | --- | --- | --- | --- | --- | --- | --- |
| Cc1ccc(/C=N/Nc2ncccn2)s1 | > 100 | > 100 | > 100 | > 100 | > 100 | – | – | – | – |
| C[C@@H]1CCC2[C@@H](C)C(=O)O[C@@H]3C4C[C@@H]1[C@@]23OO[C@@]4(C)O (some centres undefined) | > 100 | > 100 | > 100 | > 100 | > 100 | – | – | – | – |
| O=C(O)c1ccccc1/C=N\NC1=NCCN1 | > 100 | > 100 | > 100 | > 100 | > 100 | – | – | – | – |
| CC(C)[Si](OC1=CCCCCC12C(=O)N(C)c1ccccc12)(C(C)C)C(C)C (centres undefined) | 45.8 | > 100 | 30.8 | 46.1 | 37.7 | – | – | – | – |
| CC1OC(=O)c2ccccc2NC1=O (centres undefined) | > 100 | > 100 | > 100 | > 100 | > 100 | – | – | – | – |
| C=CCn1c(=O)c(C)cn(/C(=C/C(=O)OCC)C(=O)OCC)c1=O | 55.5 | 28.9 | 17.2 | 31.8 | 19.2 | – | – | – | – |
| CC(C)(C)OC(=O)NC(Cc1ccc([N+](=O)[O-])cc1)C(=O)NC(CCCCNC(=O)OCc1ccccc1)C(=O)ON1C(=O)CCC1=O (centres undefined) | – | > 100 | > 100 | > 100 | > 100 | – | – | – | – |
| CC/C(Cl)=N\OC(=O)Nc1ccc(C#N)cc1 | 29.8 | 30.5 | 8.54 | 32 | 23.5 | – | – | – | – |
| O=C(/C=C/c1ccc(O)c(O)c1)OCCOC(=O)/C=C/c1ccc(O)c(O)c1 | 44.5 | 86.5 | > 100 | > 100 | > 100 | – | – | – | – |
| Nc1ncc(Cc2nc3ccccc3s2)s1 | > 100 | > 100 | > 100 | – | > 100 | – | – | – | – |
| Cc1cn(C2CC(N=[N+]=[N-])C(CO[Si](C)(C)C(C)(C)C)O2)c(=O)[nH]c1=O (centres undefined) | 42 | 38.9 | – | 40.2 | 29.1 | – | – | – | – |
| CC1=C(C(=O)OC(C)C)C(c2ccccc2[N+](=O)[O-])C(C(=O)OC(CO[N+](=O)[O-])CO[N+](=O)[O-])=C(C)N1 (centres undefined) | 15.7 | 12.2 | – | 39.2 | 14.4 | – | – | – | – |
| COC(=O)C1=C(O)C(C(=O)OC)[C@]2(O)[C@H](C(=O)OC)[C@H]1C[C@@H](c1ccc(OC)cc1)[C@H]2C(=O)OC (some centres undefined) | > 100 | – | > 100 | > 100 | 47.3 | – | – | – | – |
| COc1ccc(C)cc1NC(=S)N/N=C/c1ccc(SC)cc1 | – | > 100 | > 100 | > 100 | > 100 | – | – | – | – |
| Nc1c(C(=O)c2ccccc2)[nH]c(NCc2ccccc2)c1C(=S)Nc1ccccc1 | > 100 | – | > 100 | > 100 | > 100 | – | – | – | – |
| NC(CCCCNc1ccn(C2OC(CO)C(O)C2O)c(=O)n1)C(=O)O (centres undefined) | > 100 | > 100 | > 100 | – | > 100 | – | – | – | – |
